The NIST ThermoML archive (doi:10.1016/j.jct.2015.04.029)
Numbers after ± are expanded uncertainties.

What was measured:
[1] = wn = mass fraction of the nth substance listed; conditions: for surface tension liquid-gas: Maximal bubble pressure; for mass density: 100 kPa, Liquid, Vibrating tube method
[2] = refractive index (Na D-line) (dimensionless); wn = mass fraction of the nth substance listed; conditions: 100 kPa, Liquid, Standard Abbe refractometry

CCC[n+]1ccn(C)c1.N[C@@H](CO)C(=O)[O-] [1-methyl-3-propylimidazolium L-serinate] + O
Conditions	mass density [kg/m3]	refractive index	surface tension liquid-gas [mN/m]
[1], 298.15 K, w2 = 0.00636	1181.69 ± 1.1	–	–
[1], 298.15 K, w2 = 0.00641	–	–	50.2 ± 0.5
[1], 298.15 K, w2 = 0.00785	1181.73 ± 1.1	–	–
[1], 298.15 K, w2 = 0.00791	–	–	50.8 ± 0.5
[1], 298.15 K, w2 = 0.00939	1181.78 ± 1.1	–	–
[1], 298.15 K, w2 = 0.00942	–	–	51.7 ± 0.5
[1], 298.15 K, w2 = 0.0109	1181.82 ± 1.1	–	–
[1], 298.15 K, w2 = 0.01091	–	–	52.5 ± 0.5
[1], 298.15 K, w2 = 0.0124	1181.86 ± 1.1	–	–
[1], 298.15 K, w2 = 0.01241	–	–	53.2 ± 0.5
[1], 303.15 K, w2 = 0.00636	1178.52 ± 1.1	–	–
[1], 303.15 K, w2 = 0.00641	–	–	49.9 ± 0.5
[1], 303.15 K, w2 = 0.00785	1178.56 ± 1.1	–	–
[1], 303.15 K, w2 = 0.00791	–	–	50.5 ± 0.5
[1], 303.15 K, w2 = 0.00939	1178.61 ± 1.1	–	–
[1], 303.15 K, w2 = 0.00942	–	–	51.4 ± 0.5
[1], 303.15 K, w2 = 0.0109	1178.65 ± 1.1	–	–
[1], 303.15 K, w2 = 0.01091	–	–	52.1 ± 0.5
[1], 303.15 K, w2 = 0.0124	1178.69 ± 1.1	–	–
[1], 303.15 K, w2 = 0.01241	–	–	52.9 ± 0.5
[1], 308.15 K, w2 = 0.00636	1175.36 ± 1.1	–	–
[1], 308.15 K, w2 = 0.00641	–	–	49.6 ± 0.5
[1], 308.15 K, w2 = 0.00785	1175.39 ± 1.1	–	–
[1], 308.15 K, w2 = 0.00791	–	–	50.2 ± 0.5
[1], 308.15 K, w2 = 0.00939	1175.43 ± 1.1	–	–
[1], 308.15 K, w2 = 0.00942	–	–	50.9 ± 0.5
[1], 308.15 K, w2 = 0.0109	1175.47 ± 1.1	–	–
[1], 308.15 K, w2 = 0.01091	–	–	51.8 ± 0.5
[1], 308.15 K, w2 = 0.0124	1175.52 ± 1.1	–	–
[1], 308.15 K, w2 = 0.01241	–	–	52.5 ± 0.5
[1], 313.15 K, w2 = 0.00636	1172.21 ± 1.1	–	–
[1], 313.15 K, w2 = 0.00641	–	–	49.2 ± 0.5
[1], 313.15 K, w2 = 0.00785	1172.24 ± 1.1	–	–
[1], 313.15 K, w2 = 0.00791	–	–	49.9 ± 0.5
[1], 313.15 K, w2 = 0.00939	1172.29 ± 1.1	–	–
[1], 313.15 K, w2 = 0.00942	–	–	50.5 ± 0.5
[1], 313.15 K, w2 = 0.0109	1172.33 ± 1.1	–	–
[1], 313.15 K, w2 = 0.01091	–	–	51.4 ± 0.5
[1], 313.15 K, w2 = 0.0124	1172.37 ± 1.1	–	–
[1], 313.15 K, w2 = 0.01241	–	–	52 ± 0.5
[1], 318.15 K, w2 = 0.00636	1169.06 ± 1.1	–	–
[1], 318.15 K, w2 = 0.00641	–	–	48.8 ± 0.5
[1], 318.15 K, w2 = 0.00785	1169.09 ± 1.1	–	–
[1], 318.15 K, w2 = 0.00791	–	–	49.5 ± 0.5
[1], 318.15 K, w2 = 0.00939	1169.13 ± 1.1	–	–
[1], 318.15 K, w2 = 0.00942	–	–	50.1 ± 0.5
[1], 318.15 K, w2 = 0.0109	1169.18 ± 1.1	–	–
[1], 318.15 K, w2 = 0.01091	–	–	50.9 ± 0.5
[1], 318.15 K, w2 = 0.0124	1169.22 ± 1.1	–	–
[1], 318.15 K, w2 = 0.01241	–	–	51.6 ± 0.5
[1], 323.15 K, w2 = 0.00636	1165.86 ± 1.1	–	–
[1], 323.15 K, w2 = 0.00641	–	–	48.5 ± 0.5
[1], 323.15 K, w2 = 0.00785	1165.89 ± 1.1	–	–
[1], 323.15 K, w2 = 0.00791	–	–	49.2 ± 0.5
[1], 323.15 K, w2 = 0.00939	1165.94 ± 1.1	–	–
[1], 323.15 K, w2 = 0.00942	–	–	49.8 ± 0.5
[1], 323.15 K, w2 = 0.0109	1165.98 ± 1.1	–	–
[1], 323.15 K, w2 = 0.01091	–	–	50.6 ± 0.5
[1], 323.15 K, w2 = 0.0124	1166.03 ± 1.1	–	–
[1], 323.15 K, w2 = 0.01241	–	–	51.2 ± 0.5
[1], 328.15 K, w2 = 0.00636	1162.76 ± 1.1	–	–
[1], 328.15 K, w2 = 0.00641	–	–	48.2 ± 0.5
[1], 328.15 K, w2 = 0.00785	1162.79 ± 1.1	–	–
[1], 328.15 K, w2 = 0.00791	–	–	48.8 ± 0.5
[1], 328.15 K, w2 = 0.00939	1162.83 ± 1.1	–	–
[1], 328.15 K, w2 = 0.00942	–	–	49.5 ± 0.5
[1], 328.15 K, w2 = 0.0109	1162.87 ± 1.1	–	–
[1], 328.15 K, w2 = 0.01091	–	–	50.2 ± 0.5
[1], 328.15 K, w2 = 0.0124	1162.91 ± 1.1	–	–
[1], 328.15 K, w2 = 0.01241	–	–	50.8 ± 0.5
[1], 333.15 K, w2 = 0.00636	1159.67 ± 1.1	–	–
[1], 333.15 K, w2 = 0.00641	–	–	47.8 ± 0.5
[1], 333.15 K, w2 = 0.00785	1159.7 ± 1.1	–	–
[1], 333.15 K, w2 = 0.00791	–	–	48.5 ± 0.5
[1], 333.15 K, w2 = 0.00939	1159.74 ± 1.1	–	–
[1], 333.15 K, w2 = 0.00942	–	–	49.1 ± 0.5
[1], 333.15 K, w2 = 0.0109	1159.79 ± 1.1	–	–
[1], 333.15 K, w2 = 0.01091	–	–	49.7 ± 0.5
[1], 333.15 K, w2 = 0.0124	1159.83 ± 1.1	–	–
[1], 333.15 K, w2 = 0.01241	–	–	50.4 ± 0.5
[1], 338.15 K, w2 = 0.00636	1156.58 ± 1.1	–	–
[1], 338.15 K, w2 = 0.00641	–	–	47.5 ± 0.5
[1], 338.15 K, w2 = 0.00785	1156.62 ± 1.1	–	–
[1], 338.15 K, w2 = 0.00791	–	–	48.2 ± 0.5
[1], 338.15 K, w2 = 0.00939	1156.65 ± 1.1	–	–
[1], 338.15 K, w2 = 0.00942	–	–	48.7 ± 0.5
[1], 338.15 K, w2 = 0.0109	1156.69 ± 1.1	–	–
[1], 338.15 K, w2 = 0.01091	–	–	49.3 ± 0.5
[1], 338.15 K, w2 = 0.0124	1156.73 ± 1.1	–	–
[1], 338.15 K, w2 = 0.01241	–	–	50 ± 0.5
[2], 298.15 K, w2 = 0.00614	–	1.5158 ± 0.0005	–
[2], 298.15 K, w2 = 0.00766	–	1.5154 ± 0.0005	–
[2], 298.15 K, w2 = 0.00917	–	1.5149 ± 0.0005	–
[2], 298.15 K, w2 = 0.01069	–	1.5144 ± 0.0005	–
[2], 298.15 K, w2 = 0.01217	–	1.514 ± 0.0005	–
[2], 303.15 K, w2 = 0.00614	–	1.5145 ± 0.0005	–
[2], 303.15 K, w2 = 0.00766	–	1.514 ± 0.0005	–
[2], 303.15 K, w2 = 0.00917	–	1.5135 ± 0.0005	–
[2], 303.15 K, w2 = 0.01069	–	1.5131 ± 0.0005	–
[2], 303.15 K, w2 = 0.01217	–	1.5125 ± 0.0005	–
[2], 308.15 K, w2 = 0.00614	–	1.5131 ± 0.0005	–
[2], 308.15 K, w2 = 0.00766	–	1.5126 ± 0.0005	–
[2], 308.15 K, w2 = 0.00917	–	1.5119 ± 0.0005	–
[2], 308.15 K, w2 = 0.01069	–	1.5115 ± 0.0005	–
[2], 308.15 K, w2 = 0.01217	–	1.5109 ± 0.0005	–
[2], 313.15 K, w2 = 0.00614	–	1.5118 ± 0.0005	–
[2], 313.15 K, w2 = 0.00766	–	1.5113 ± 0.0005	–
[2], 313.15 K, w2 = 0.00917	–	1.5106 ± 0.0005	–
[2], 313.15 K, w2 = 0.01069	–	1.5102 ± 0.0005	–
[2], 313.15 K, w2 = 0.01217	–	1.5095 ± 0.0005	–
[2], 318.15 K, w2 = 0.00614	–	1.5106 ± 0.0005	–
[2], 318.15 K, w2 = 0.00766	–	1.5099 ± 0.0005	–
[2], 318.15 K, w2 = 0.00917	–	1.5092 ± 0.0005	–
[2], 318.15 K, w2 = 0.01069	–	1.5087 ± 0.0005	–
[2], 318.15 K, w2 = 0.01217	–	1.5081 ± 0.0005	–
[2], 323.15 K, w2 = 0.00614	–	1.5094 ± 0.0005	–
[2], 323.15 K, w2 = 0.00766	–	1.5086 ± 0.0005	–
[2], 323.15 K, w2 = 0.00917	–	1.5078 ± 0.0005	–
[2], 323.15 K, w2 = 0.01069	–	1.5072 ± 0.0005	–
[2], 323.15 K, w2 = 0.01217	–	1.5065 ± 0.0005	–
[2], 328.15 K, w2 = 0.00614	–	1.5081 ± 0.0005	–
[2], 328.15 K, w2 = 0.00766	–	1.5072 ± 0.0005	–
[2], 328.15 K, w2 = 0.00917	–	1.5063 ± 0.0005	–
[2], 328.15 K, w2 = 0.01069	–	1.5056 ± 0.0005	–
[2], 328.15 K, w2 = 0.01217	–	1.505 ± 0.0005	–
[2], 333.15 K, w2 = 0.00614	–	1.5068 ± 0.0005	–
[2], 333.15 K, w2 = 0.00766	–	1.5058 ± 0.0005	–
[2], 333.15 K, w2 = 0.00917	–	1.5049 ± 0.0005	–
[2], 333.15 K, w2 = 0.01069	–	1.5042 ± 0.0005	–
[2], 333.15 K, w2 = 0.01217	–	1.5035 ± 0.0005	–
[2], 338.15 K, w2 = 0.00614	–	1.5054 ± 0.0005	–
[2], 338.15 K, w2 = 0.00766	–	1.5044 ± 0.0005	–
[2], 338.15 K, w2 = 0.00917	–	1.5036 ± 0.0005	–
[2], 338.15 K, w2 = 0.01069	–	1.5028 ± 0.0005	–
[2], 338.15 K, w2 = 0.01217	–	1.5021 ± 0.0005	–
